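Grown in 96-well plates, cells were treated for 48 hours with each compound at five concentrations. Insufficient inhibition: endpoint recorded as highest concentration tested. The concentration for 50% growth inhibition is given as GI50. TGI: total growth inhibition.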
Experiments:
Test in all cases: DTP human tumour cell line panel, 48 h
OVCAR-8 ovarian = tested on: OVCAR-8 ovarian
PC-3 prostate = tested on: PC-3 prostate
OVCAR-3 ovarian = tested on: OVCAR-3 ovarian
MCF7 breast = tested on: MCF7 breast
SF-539 CNS = tested on: SF-539 CNS
TK-10 renal = tested on: TK-10 renal
OVCAR-4 ovarian = tested on: OVCAR-4 ovarian
IGROV1 ovarian = tested on: IGROV1 ovarian
SF-268 CNS = tested on: SF-268 CNS
CCRF-CEM leukemia = tested on: CCRF-CEM leukemia

Row | Compound | GI50 (OVCAR-8 ovarian) | TGI (OVCAR-8 ovarian) | GI50 (PC-3 prostate) | TGI (PC-3 prostate) | GI50 (OVCAR-3 ovarian) | TGI (OVCAR-3 ovarian) | GI50 (MCF7 breast) | TGI (MCF7 breast) | GI50 (SF-539 CNS) | TGI (SF-539 CNS) | GI50 (TK-10 renal) | TGI (TK-10 renal) | GI50 (OVCAR-4 ovarian) | TGI (OVCAR-4 ovarian) | GI50 (IGROV1 ovarian) | TGI (IGROV1 ovarian) | GI50 (SF-268 CNS) | TGI (SF-268 CNS) | TGI (CCRF-CEM leukemia) | GI50 (CCRF-CEM leukemia)
1 | COc1cc2c3c(n(C)c(=O)c2cc1OC)-c1cc2c(cc1/C3=C\CCCN)OCO2 | 10.1 µM | 22.4 µM | 3.31 µM | 31.9 µM | 13.8 µM | 29.8 µM | 3.95 µM | 42.8 µM | 1.65 µM | 6.25 µM | 21.9 µM | > 100 µM | 17.9 µM | 52.7 µM | 2.24 µM | 32.4 µM | 4.93 µM | 66.9 µM |  | 
2 | CSc1nc(NC2OCC(OC(C)=O)C(OC(C)=O)C2OC(C)=O)c(N=CC=Nc2c(NC3OCC(OC(C)=O)C(OC(C)=O)C3OC(C)=O)nc(SC)[nH]c2=O)c(=O)[nH]1 (centres undefined) |  | > 100 µM |  |  |  | > 100 µM |  | > 100 µM |  | > 86.4 µM |  | > 100 µM |  | > 100 µM |  | > 100 µM |  | > 100 µM | > 100 µM | 
3 | COc1cc2c(c(OC)c1OC)-c1ccc(OC)c(=O)cc1C(NC(=O)c1ccc(N=[N+]=[N-])cc1)CC2 (centres undefined) |  | 1.02 µM |  |  |  | 0.0555 µM |  | > 100 µM |  | 0.0611 µM |  | > 100 µM |  | > 100 µM |  | > 100 µM |  | > 100 µM | > 24.5 µM | 
4 | Clc1ccc(C(c2ccc(Cl)cc2)c2ccccn2)cc1 |  | 33.8 µM |  |  |  |  |  |  |  | 33.7 µM |  | 45.3 µM |  | 70.2 µM |  | > 100 µM |  | 69.7 µM | 48.1 µM | 
5 | COc1cc(/C=C2\CN(S(=O)(=O)c3ccccc3)C/C(=C\c3cc(CN4CCCC4)c(O)c(OC)c3)C2=O)cc(CN2CCCC2)c1O | 1.31 µM | > 100 µM | 1.41 µM | 3.91 µM | 1.02 µM | 3.05 µM |  |  | 1.64 µM | 3.31 µM | 3.18 µM | 7.73 µM | 1.27 µM | 3.09 µM | 1.54 µM | 3.29 µM | 1.45 µM | 4.06 µM |  | 
6 | O=C1NCC2(CCN(CCCC3(c4ccc(F)cc4)OCCO3)CC2)N1c1ccccc1 |  | > 100 µM |  | > 100 µM |  | > 100 µM |  |  |  | > 100 µM |  | > 100 µM |  | > 100 µM |  | > 100 µM |  | > 100 µM | > 100 µM | 
7 | CCCCCCCCC/C=C1\CCC(CN2CCOCC2)C1=O (centres undefined) |  | 3.13 µM |  | 4.25 µM |  | 24.9 µM |  |  |  | 3.74 µM |  | 5.56 µM |  | 12 µM |  | 14.8 µM |  | 18.2 µM | 6.56 µM | 
8 | CC(=O)/C(=C\c1cccc([N+](=O)[O-])c1)C(=O)Nc1ccccc1C |  |  |  |  |  | > 100 µM |  |  |  | > 100 µM |  | > 100 µM |  | > 100 µM |  | > 100 µM |  | > 100 µM | > 100 µM | 
9 | Cc1cc(-c2ccc3nc(C4CCOCC4)n(CCOC(F)(F)F)c3c2)cn(C)c1=O | 0.952 µM |  | 1.04 µM |  |  | 3.94 µM | 0.0586 µM |  |  |  |  | 4.64 µM |  |  |  | 6.91 µM | 1.65 µM | 80.2 µM | > 100 µM | 1.71 µM
10 | CCCC(=O)OC1CC(n2cc(F)c(=O)[nH]c2=O)OC1COP(=O)(OCC(Cl)(Cl)Cl)OCC(Cl)(Cl)Cl (centres undefined) |  | > 100 µM |  | > 100 µM |  | 38.8 µM |  | > 100 µM |  |  |  | > 100 µM |  | > 100 µM |  | > 31.6 µM |  | > 31.6 µM | 94.4 µM | 
11 | Cn1c2ccccc2c2cc(-c3ccccc3)c3c(c21)C(=O)c1ccccc1C3=O |  | 68.1 µM |  |  |  | 36.4 µM |  |  |  | 49.2 µM |  | > 100 µM |  | 34.3 µM |  | 58.5 µM |  | 91.8 µM | 33 µM | 
12 | CCc1cc(Cc2cc(CC)c(NC(=O)C(=O)Cc3ccccn3)c(CC)c2Cl)c(Cl)c(CC)c1NC(=O)C(=O)Cc1ccccn1 |  | > 100 µM |  |  |  | > 100 µM |  |  |  | > 100 µM |  | > 100 µM |  | > 100 µM |  | > 100 µM |  | > 100 µM | > 100 µM | 
13 | OCC#Cc1ccccc1C#Cc1ccccc1 | 19.6 µM | 40.6 µM | 11.5 µM | 24.1 µM | 6.9 µM | 20.3 µM | 19.5 µM | 44.4 µM |  |  | 13.6 µM | 26.6 µM | 17 µM | 45.2 µM | 30.3 µM | > 100 µM | 17.1 µM | 35.3 µM | 39.8 µM | 7.14 µM
14 | O=c1cc(-c2ccccc2)oc2cc(OCCCOc3ccc4c(=O)cc(-c5ccccc5)oc4c3)ccc12 |  | > 100 µM |  |  |  | > 100 µM |  |  |  | > 100 µM |  | > 100 µM |  | > 100 µM |  | > 100 µM |  |  | > 100 µM | 
15 | Cc1c2c(nn1-c1ccc(S(=O)(=O)/N=C3\SCCC(=O)N3c3ccccc3)cc1)-c1ccccc1CC2 | 89.6 µM | > 100 µM | > 100 µM | > 100 µM | > 100 µM | > 100 µM |  |  |  |  | > 100 µM | > 100 µM | > 100 µM | > 100 µM | > 100 µM | > 100 µM | 35 µM | > 100 µM | > 100 µM | > 100 µM
16 | CCOC(=O)C(=C=C=C(c1ccccc1)c1ccccc1)C(=O)OCC |  | 50.3 µM |  |  |  | 31 µM |  |  |  | 33.8 µM |  | 31.3 µM |  | 33.7 µM |  | 37.9 µM |  | 63.5 µM | 15.1 µM | 
17 | CCN1c2ccccc2C(C(SC)S(=O)(=O)c2ccc(C)cc2)c2c1[nH]c(=O)n(C)c2=O (centres undefined) |  | > 100 µM |  |  |  | > 100 µM |  |  |  | > 100 µM |  | > 100 µM |  | > 100 µM |  | > 100 µM |  | > 100 µM | > 100 µM | 
18 | C=C1C(=O)O[C@H]2[C@H]1CC/C(COC(=O)c1c[nH]c3ccccc13)=C\CC[C@@]1(C)O[C@@H]21 | 0.282 µM | 1.03 µM | 0.384 µM | 2.03 µM | 0.207 µM | 0.483 µM |  |  | 0.264 µM | 1 µM | 0.28 µM | 0.736 µM | 0.258 µM | 0.842 µM |  |  | 0.294 µM | 1.07 µM | 0.972 µM | 0.058 µM
19 | COc1cc(OC)cc(-c2cc(=O)c3c(OC)c(OC)c(OC)c(OC)c3o2)c1 |  | > 100 µM |  |  |  | > 100 µM |  | > 100 µM |  | > 100 µM |  | > 100 µM |  | > 100 µM |  | > 100 µM |  | > 100 µM | > 100 µM | 
20 | CC1=CC(O)(c2ccc(-c3ccccc3Cl)cc2)OC1=O (centres undefined) |  | > 100 µM |  |  |  | > 100 µM |  |  |  | > 100 µM |  | > 100 µM |  | > 100 µM |  | > 100 µM |  | > 100 µM | > 100 µM | 

— PubChem BioAssay (NCI)
